Laboratory results from PubChem BioAssay (NCI).
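Each compound was tested at five concentrations against cells in 96-well plates for 48 hours. GI50: concentration for 50% inhibition of growth. TGI: concentration producing complete growth inhibition.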

How the values were obtained:
Assay in all cases: NCI-60 cell line screen, 48 h
786-0 renal = test system: 786-0 renal
A498 renal = test system: A498 renal
A549 NSCLC = test system: A549 NSCLC
ACHN renal = test system: ACHN renal
CAKI-1 renal = test system: CAKI-1 renal
CCRF-CEM leukemia = test system: CCRF-CEM leukemia
COLO 205 colon = test system: COLO 205 colon
DLD-1 colon = test system: DLD-1 colon
DMS 273 small cell lung = test system: DMS 273 small cell lung
EKVX NSCLC = test system: EKVX NSCLC
HCC-2998 colon = test system: HCC-2998 colon
HCT-116 colon = test system: HCT-116 colon
HCT-15 colon = test system: HCT-15 colon
HL-60(TB) leukemia = test system: HL-60(TB) leukemia
HOP-18 NSCLC = test system: HOP-18 NSCLC
HOP-62 NSCLC = test system: HOP-62 NSCLC
HOP-92 NSCLC = test system: HOP-92 NSCLC
HT29 colon = test system: HT29 colon
IGROV1 ovarian = test system: IGROV1 ovarian
K-562 leukemia = test system: K-562 leukemia
KM12 colon = test system: KM12 colon
KM20L2 colon = test system: KM20L2 colon
LOX IMVI melanoma = test system: LOX IMVI melanoma
LXFL 529 NSCLC = test system: LXFL 529 NSCLC
M14 melanoma = test system: M14 melanoma
MALME-3M melanoma = test system: MALME-3M melanoma
MOLT-4 leukemia = test system: MOLT-4 leukemia
NCI-H226 lung = test system: NCI-H226 lung
NCI-H23 lung = test system: NCI-H23 lung
NCI-H460 lung = test system: NCI-H460 lung
NCI-H522 lung = test system: NCI-H522 lung
OVCAR-3 ovarian = test system: OVCAR-3 ovarian
OVCAR-4 ovarian = test system: OVCAR-4 ovarian
OVCAR-5 ovarian = test system: OVCAR-5 ovarian
OVCAR-8 ovarian = test system: OVCAR-8 ovarian
RPMI-8226 leukemia = test system: RPMI-8226 leukemia
RXF 393 renal = test system: RXF 393 renal
SF-268 CNS = test system: SF-268 CNS
SF-295 CNS = test system: SF-295 CNS
SF-539 CNS = test system: SF-539 CNS
SK-MEL-2 melanoma = test system: SK-MEL-2 melanoma
SK-MEL-28 melanoma = test system: SK-MEL-28 melanoma
SK-MEL-5 melanoma = test system: SK-MEL-5 melanoma
SK-OV-3 ovarian = test system: SK-OV-3 ovarian
SN12C renal = test system: SN12C renal
SNB-19 CNS = test system: SNB-19 CNS
SNB-75 CNS = test system: SNB-75 CNS
SNB-78 CNS = test system: SNB-78 CNS
SR leukemia = test system: SR leukemia
SW-620 colon = test system: SW-620 colon
TK-10 renal = test system: TK-10 renal
U251 CNS = test system: U251 CNS
UACC-257 melanoma = test system: UACC-257 melanoma
UACC-62 melanoma = test system: UACC-62 melanoma
UO-31 renal = test system: UO-31 renal
DU-145 prostate = test system: DU-145 prostate
M19-MEL melanoma = test system: M19-MEL melanoma

SMILES: N.N.NCCCCCCN.O=C([O-])CC(=O)[O-].O=C([O-])CC(=O)[O-].[Pt+4].[Pt+4]
- GI50 (786-0 renal): 65.7 µM
- TGI (786-0 renal): > 100 µM
- GI50 (A498 renal): > 100 µM
- TGI (A498 renal): > 100 µM
- GI50 (A549 NSCLC): > 100 µM
- TGI (A549 NSCLC): > 100 µM
- GI50 (ACHN renal): 36.1 µM
- TGI (ACHN renal): > 100 µM
- GI50 (CAKI-1 renal): 26.6 µM
- TGI (CAKI-1 renal): > 100 µM
- GI50 (CCRF-CEM leukemia): 15.6 µM
- TGI (CCRF-CEM leukemia): > 100 µM
- GI50 (COLO 205 colon): 27.7 µM
- TGI (COLO 205 colon): > 100 µM
- GI50 (DLD-1 colon): > 100 µM
- TGI (DLD-1 colon): > 100 µM
- GI50 (DMS 273 small cell lung): 40.8 µM
- TGI (DMS 273 small cell lung): > 100 µM
- GI50 (EKVX NSCLC): > 100 µM
- TGI (EKVX NSCLC): > 100 µM
- GI50 (HCC-2998 colon): > 100 µM
- TGI (HCC-2998 colon): > 100 µM
- GI50 (HCT-116 colon): > 100 µM
- TGI (HCT-116 colon): > 100 µM
- GI50 (HCT-15 colon): > 66.1 µM
- TGI (HCT-15 colon): > 100 µM
- GI50 (HL-60(TB) leukemia): 23.7 µM
- TGI (HL-60(TB) leukemia): > 100 µM
- GI50 (HOP-18 NSCLC): > 100 µM
- TGI (HOP-18 NSCLC): > 100 µM
- GI50 (HOP-62 NSCLC): 38.7 µM
- TGI (HOP-62 NSCLC): > 100 µM
- GI50 (HOP-92 NSCLC): > 100 µM
- TGI (HOP-92 NSCLC): > 100 µM
- GI50 (HT29 colon): 62.5 µM
- TGI (HT29 colon): > 100 µM
- GI50 (IGROV1 ovarian): > 100 µM
- TGI (IGROV1 ovarian): > 100 µM
- GI50 (K-562 leukemia): > 86.3 µM
- TGI (K-562 leukemia): > 100 µM
- GI50 (KM12 colon): > 100 µM
- TGI (KM12 colon): > 100 µM
- GI50 (KM20L2 colon): > 100 µM
- TGI (KM20L2 colon): > 100 µM
- GI50 (LOX IMVI melanoma): > 100 µM
- TGI (LOX IMVI melanoma): > 100 µM
- GI50 (LXFL 529 NSCLC): > 100 µM
- TGI (LXFL 529 NSCLC): > 100 µM
- GI50 (M14 melanoma): > 86.7 µM
- TGI (M14 melanoma): > 100 µM
- GI50 (MALME-3M melanoma): > 100 µM
- TGI (MALME-3M melanoma): > 100 µM
- GI50 (MOLT-4 leukemia): 5.2 µM
- TGI (MOLT-4 leukemia): > 100 µM
- GI50 (NCI-H226 lung): > 56.7 µM
- TGI (NCI-H226 lung): > 100 µM
- GI50 (NCI-H23 lung): 57.3 µM
- TGI (NCI-H23 lung): > 100 µM
- GI50 (NCI-H460 lung): 6.59 µM
- TGI (NCI-H460 lung): > 100 µM
- GI50 (NCI-H522 lung): 29 µM
- TGI (NCI-H522 lung): > 100 µM
- GI50 (OVCAR-3 ovarian): > 89.7 µM
- TGI (OVCAR-3 ovarian): > 100 µM
- GI50 (OVCAR-4 ovarian): > 78.5 µM
- TGI (OVCAR-4 ovarian): > 100 µM
- GI50 (OVCAR-5 ovarian): > 100 µM
- TGI (OVCAR-5 ovarian): > 100 µM
- GI50 (OVCAR-8 ovarian): > 100 µM
- TGI (OVCAR-8 ovarian): > 100 µM
- GI50 (RPMI-8226 leukemia): > 100 µM
- TGI (RPMI-8226 leukemia): > 100 µM
- GI50 (RXF 393 renal): > 41.4 µM
- TGI (RXF 393 renal): > 100 µM
- GI50 (SF-268 CNS): 28.9 µM
- TGI (SF-268 CNS): > 100 µM
- GI50 (SF-295 CNS): > 71.6 µM
- TGI (SF-295 CNS): > 100 µM
- GI50 (SF-539 CNS): 73.9 µM
- TGI (SF-539 CNS): > 100 µM
- GI50 (SK-MEL-2 melanoma): > 100 µM
- TGI (SK-MEL-2 melanoma): > 100 µM
- GI50 (SK-MEL-28 melanoma): > 100 µM
- TGI (SK-MEL-28 melanoma): > 100 µM
- GI50 (SK-MEL-5 melanoma): > 100 µM
- TGI (SK-MEL-5 melanoma): > 100 µM
- GI50 (SK-OV-3 ovarian): > 100 µM
- TGI (SK-OV-3 ovarian): > 100 µM
- GI50 (SN12C renal): 14.5 µM
- TGI (SN12C renal): > 100 µM
- GI50 (SNB-19 CNS): > 72.1 µM
- TGI (SNB-19 CNS): > 100 µM
- GI50 (SNB-75 CNS): 38.7 µM
- TGI (SNB-75 CNS): > 100 µM
- GI50 (SNB-78 CNS): > 100 µM
- TGI (SNB-78 CNS): > 100 µM
- GI50 (SR leukemia): > 41.9 µM
- TGI (SR leukemia): > 100 µM
- GI50 (SW-620 colon): > 38 µM
- TGI (SW-620 colon): > 58.7 µM
- GI50 (TK-10 renal): > 100 µM
- TGI (TK-10 renal): > 100 µM
- GI50 (U251 CNS): 47.7 µM
- TGI (U251 CNS): > 100 µM
- GI50 (UACC-257 melanoma): > 100 µM
- TGI (UACC-257 melanoma): > 100 µM
- GI50 (UACC-62 melanoma): 10.5 µM
- TGI (UACC-62 melanoma): > 100 µM
- GI50 (UO-31 renal): > 100 µM
- TGI (UO-31 renal): > 100 µM

SMILES: C=C=C(Sc1ccccc1)C(C)(C)OC(C)=O
- TGI (786-0 renal): 30.1 µM
- TGI (A498 renal): 42.6 µM
- TGI (A549 NSCLC): 74.8 µM
- TGI (CAKI-1 renal): 90.2 µM
- TGI (CCRF-CEM leukemia): 58.7 µM
- TGI (COLO 205 colon): 32.5 µM
- TGI (DLD-1 colon): 31.5 µM
- TGI (DU-145 prostate): 90.2 µM
- TGI (HCC-2998 colon): 43.1 µM
- TGI (HCT-116 colon): 27.7 µM
- TGI (HCT-15 colon): 46.9 µM
- TGI (HL-60(TB) leukemia): 81 µM
- TGI (HOP-18 NSCLC): 38.5 µM
- TGI (HOP-92 NSCLC): 34.2 µM
- TGI (HT29 colon): 37 µM
- TGI (IGROV1 ovarian): 33.3 µM
- TGI (K-562 leukemia): 52 µM
- TGI (KM12 colon): 31.4 µM
- TGI (KM20L2 colon): 58.7 µM
- TGI (LOX IMVI melanoma): 30.9 µM
- TGI (LXFL 529 NSCLC): 38.3 µM
- TGI (M14 melanoma): 32.4 µM
- TGI (M19-MEL melanoma): 30.6 µM
- TGI (MALME-3M melanoma): 35.3 µM
- TGI (MOLT-4 leukemia): > 100 µM
- TGI (NCI-H226 lung): 45.4 µM
- TGI (NCI-H23 lung): 32.9 µM
- TGI (NCI-H460 lung): 46.8 µM
- TGI (NCI-H522 lung): 29.6 µM
- TGI (OVCAR-3 ovarian): 31.1 µM
- TGI (OVCAR-4 ovarian): > 100 µM
- TGI (OVCAR-5 ovarian): 45.2 µM
- TGI (OVCAR-8 ovarian): 46.9 µM
- TGI (RPMI-8226 leukemia): > 100 µM
- TGI (RXF 393 renal): 28.4 µM
- TGI (SF-268 CNS): 27.7 µM
- TGI (SF-295 CNS): 33.6 µM
- TGI (SF-539 CNS): 29.8 µM
- TGI (SK-MEL-2 melanoma): 35 µM
- TGI (SK-MEL-28 melanoma): 31.4 µM
- TGI (SK-MEL-5 melanoma): 29.3 µM
- TGI (SK-OV-3 ovarian): 51.9 µM
- TGI (SN12C renal): 31.1 µM
- TGI (SNB-19 CNS): 40.4 µM
- TGI (SNB-75 CNS): 49.8 µM
- TGI (SNB-78 CNS): 91.4 µM
- TGI (SR leukemia): > 100 µM
- TGI (SW-620 colon): 33.7 µM
- TGI (TK-10 renal): > 100 µM
- TGI (U251 CNS): 31.6 µM
- TGI (UACC-257 melanoma): 32.4 µM
- TGI (UACC-62 melanoma): 29.2 µM
- TGI (UO-31 renal): 28.6 µM
